Assay results taken from patent US20050096370A1, “Method for inhibiting tumor angiogenesis and tumor growth” (Bizbiotech Co., Ltd., priority 2003, published 2005).

Legend:
[1] = test system: NCI-H87 gastric carcinoma; test: NCI-H87 gastric carcinoma xenograft tumor growth in nude mice; type: in vivo; settings: YC-1 30 μg/g daily i.p. 2 weeks, P<0.01
Method: (§1) Male nude mice were injected subcutaneously in the flank with 5×10^6 viable Hep3B hepatoma (A), NCI-H87 gastric carcinoma (B), SiHa cervical carcinoma (C), SK-N-MC neuroblastoma (E), or Caki-I renal carcinoma (F) cells. […] Tumor size was measured over time. […] Differences between tumor sizes in the vehicle- and YC-1-treated groups for mice with Hep3B tumors were compared using ANOVA and Duncan's multiple range tests. * denotes P<0.001 relative to the control. Differences between tumor sizes in the vehicle and YC-1-treated groups for mice with other tumors (B-E) were compared using a Mann-Whitney U test. Each number beneath the error bar represents the P value of the difference relative to the control.
(§2) Male nude (BALB/cAnNC˜-nu/nu) mice were purchased from Charles River Japan Inc. (Shin-Yokohama, JAPAN). The animals were housed in a specific pathogen-free room under controlled temperature and humidity. All animal procedures were performed according to the established procedures of the Seoul National University Laboratory Animal Maintenance Manual. Eighty mice aged 7-8 weeks were injected with tumor cells for the xenograft experiments. […]
(§3) Tumors were measured every 2 or 3 days with calipers in two dimensions and the tumor volumes were calculated using the formula: Volume=axb2/2, where a is the width at the widest point of the tumor and h is the width perpendicular to a. […]

[2] = test system: SiHa cervical carcinoma; test: SiHa cervical carcinoma xenograft tumor growth in nude mice; type: in vivo; settings: YC-1 30 μg/g daily i.p. 2 weeks, P<0.01
Method: as §1, §2, §3

[3] = test system: SK-N-MC neuroblastoma; test: SK-N-MC neuroblastoma xenograft tumor growth in nude mice; type: in vivo; settings: YC-1 30 μg/g daily i.p. 2 weeks, P<0.01
Method: as §1, §2, §3

[4] = test system: Hep3B hepatoma tumors; test: histology and immunohistochemistry (H&E, CD31, HIF-1α) of Hep3B xenograft tumors; type: in vivo, nude mice; settings: 30 μg/g daily i.p. 2 weeks
Method: FIG. 7 is a picture showing histopathology for Hep3B hepatoma tumors grown in nude mice. Male nude mice were injected subcutaneously in the flank with 5×10^6 viable Hep3B cells. […] After the last treatment, the mice were euthanized, the tumors removed, fixed with formalin, and embedded in paraffin. Tumor sections were cut from the paraffin blocks and stained with hernatoxylin and eosin. v, vessel; a, acinus. Scale bar=50 μm.
FIG. 8 is a picture showing vascular distribution in Hep3B hepatoma tumors grown in nude mice. Male nude mice were injected subcutaneously in the flank with 5×10^6 viable Hep3B cells. […] After the last treatment, the mice were euthanized, the tumors removed, fixed with formalin, and embedded in paraffin. Tumor sections were cut from the paraffin blocks and processed for immunohistochemical staining to detect endothelial cells with an anti-CD31 antibody. The immunostained sections were developed using the avidinbiotin-horseradish peroxidase method with diaminobenzidine as the chromagen. The sections were lightly counterstained with hematoxylin. Arrows indicate CD31-positive vessels. Scale bar=50 μm.
FIG. 9 is a picture showing expression and distribution of HIF-1α in Hep3B hepatoma tumors grown in nude mice. Male nude mice were injected subcutaneously in the flank with 5×10^6 viable Hep3B cells. […] After the last treatment, the mice were euthanized, the tumors removed, fixed with formalin, and embedded in paraffin. Tumor sections were cut from the paraffin blocks and processed for immunohistochemical staining to detect HIF-1α with an anti-HIF-1α antibody. The immunostained sections were developed using the avidin-biotin-horseradish peroxidase method with diaminobenzidine as the chromagen. The sections were lightly counterstained with hematoxylin. Arrows indicate HIF-1α positive cells. nu, nuclear staining; pn, perinuclear staining. Scale bar=50 μm. […]
Because HIF-1 is important in angiogenesis, we next assessed HIF-1α expression in tumor sections from vehicle- and YC-1-treated mice (FIG. 9).

[5] = test system: HIF-1α and VEGF; test: HIF-1α and VEGF protein immunoblot of Hep3B xenograft tumor lysates; type: in vivo, nude mice; settings: Hep3B xenografts, 30 μg/g daily i.p. 2 weeks
Method: Male nude mice were injected subcutaneously in the flank with 5×10^6 viable Hep3B cells. […] After the last treatment, the mice were euthanized, the tumors removed and lysates prepared for immunoblotting.
Male nude mice were injected subcutaneously in the flank with 5×10^6 viable Hep3B cells. […] After the last treatment, the mice were euthanized, the tumors removed and lysates prepared for immunoblotting. Tumor lysates from vehicle-treated mice (C) and from. […] The antigen-antibody-protein A complexes were washed extensively with the lysis buffer, the immunocomplexes were eluted by boiling for 3 minutes in a sample buffer containing 2% SDS and 10 mM dithiothreitol and subjected to SDS-PAGE, and then immunoblotted using a rat anti HIF-1α antibody developed previously (Chun et al., Biochem J 2002 362:71-79). β-actin protein was measured as an internal standard. VEGF in tumor tissue was detected using a mouse monoclonal anti-VEGF (SantaCruz Biotechnology Inc., Santa Cruz, Calif.) at a dilution of 1:1000, followed by incubation with a horseradish peroxidase-conjugated anti-mouse antiseruni (Zymed Laboratories Inc.).

## OCc1ccc(-c2nn(Cc3ccccc3)c3ccccc23)o1 [YC-1, 3-(5′-hydroxymethyl-2′-furyl)-1-benzylindazole]
[1]
  tumor size versus vehicle: statistically significantly smaller
[2]
  tumor size versus vehicle: statistically significantly smaller
[3]
  tumor size versus vehicle: statistically significantly smaller
[4]
  CD31-immunopositive vessels in tumor sections: Few CD31-immunopositive vessels
  HIF-1α immunoreactive cells in tumor sections: no HIF-1α inimunoreactive cells
  hematoxylin-eosin histology of tumor sections: frequent acinus formation without well-developed blood vessels
[5]
  level of HIF-1α protein expression in tumors versus vehicle: markedly lower
  level of VEGF protein expression in tumors versus vehicle: markedly lower
